{
  "source": "patent US9320724B2",
  "about": "“Method of improving cognition and increasing dendritic complexity in humans with down syndrome and compositions therefor” (priority 2013, dated 2016)",
  "key": {"Ts65Dn mice [1]": {"tested_on": "Ts65Dn mice", "settings": "cited from earlier work; for contextual learning: earlier study"}, "Fgf2 [2]": {"tested_on": "Fgf2", "settings": "rats; IP injections; cited from earlier work"}, "Ts65Dn mice [3]": {"tested_on": "Ts65Dn mice", "settings": "cited from earlier work"}, "Ts65Dn and 2N mice [4]": {"tested_on": "Ts65Dn and 2N mice", "experiment": "Cardiovascular and respiratory system monitoring (MouseOx vital signs monitor)", "settings": "nadolol 5 mg/kg IP, 1 h later formoterol 2 mg/kg IP or saline, tested 4 h later", "experimental": "(§1) Pharmacological Treatments. […] For details on methods of drug injections see FIG. 16.\nCardiovascular and respiratory system monitoring. Peripheral effects of fomoterol were assessed using MOUSEOX® Small Animal Vital Signs Monitor (Starr). The monitor was attached to a collar clip with an LED sensor to enable recordings in free-moving mice. To minimize stress before recording, the collar clip was attached to each animal. After five minutes, heart rate, respiratory rate, and oxygen saturation were recorded using MOUSEOX® 6.3.13 for 10 minutes.\n(§2) FIG. 16. Strategy used for performing IP injections of βAR agonist and antagonist and behavioral testing. […] Four hours later, the mice were tested for cardiovascular and respiratory system effects, open field activity, or fear conditioning. The process started with open field-testing on day 1 followed by fear conditioning on days 4 (training) and 5 (testing)."}, "[5]": {"settings": "in vivo; cited from earlier work"}, "Ts65Dn and 2N mice [6]": {"tested_on": "Ts65Dn and 2N mice", "experiment": "Fear conditioning (contextual learning)", "assay_type": "in vivo, mouse", "settings": "context test one day after training, nadolol 5 mg/kg IP then formoterol 2 mg/kg IP or saline", "experimental": "as §1\nb) Fear Conditioning. […] The fear conditioning tests were done using four FreezeScan chambers (Clever Sys) on days 4 and 5 after the start of the open field-testing. […] Four hours later, the mice were placed in the fear-conditioning chamber and their baseline activity was recorded for three minutes. At the end of this period, each mouse was exposed to five shocks (2 seconds each, 0.5 mA) with inter-trial intervals of 80 seconds. Twenty-four hours later, the mice were injected again, similar to the Training Day, and returned to the same fear-conditioning chamber for five minutes and their activity was recorded. Freezing was defined as a lack of movement for 3 frames (29 frames/s).\nas §2"}, "[7]": {"settings": "oral administration in rodents; cited from earlier work"}, "BrdU-positive profiles": {"tested_on": "BrdU-positive profiles", "experiment": "BrdU cell count in the DG (cell proliferation)", "assay_type": "in vivo, mouse", "settings": "15 days of treatment, then BrdU 50 mg/kg IP daily for 5 days", "experimental": "To identify proliferating cells, we used 5-bromo-2′-deoxyuridine (BrdU, Sigma). It was dissolved in PBS, filtered, and kept at 4° C. till use. After 15 days of treatment, each mouse was injected IP daily (50 mg/kg) with BrdU solution for 5 days. Thereafter, on day 21, all mice were anesthetized and transcardially perfused with ice-cold saline. The entire brain was immediately removed and the two hemispheres were separated. The left hemisphere was fixed overnight, cut, and stored. […] This was followed by incubation of sections in ABC.\nStereo-Investigator (MBF) was used to quantify the total number of BrdU-positive cells in the entire septo-temporal extent of DG. Following the outlining of the DG area at 4×, each positive profile was identified using a 100× oil objective. Unbiased stereological methods were used to determine the total number of BrdU-immunoreactive-profiles throughout the hippocampus. A Nanozoomer system (Hamamatsu 2.0 RS) was used to capture images of the entire slide in each case. High magnification images were captured using the Nanozoomer and stored."}, "Fgf2 [8]": {"tested_on": "Fgf2", "experiment": "Fgf2 gene expression, real-time PCR in DG micro-punches", "assay_type": "in vivo", "settings": "normalized to B-actin and Gapdh and to a 2N mouse"}, "Ts65Dn and 2N mice [9]": {"tested_on": "Ts65Dn and 2N mice", "experiment": "Open field activity", "assay_type": "in vivo, mouse", "settings": "nadolol 5 mg/kg IP then formoterol 2 mg/kg IP or saline; for total distance travelled: in 10 minutes", "experimental": "as §1\na) Open Field Activity. Prior to testing, the mice were handled for five days for habituation. […] Four hours later, the mice were tested for open field activity. The open field arena (450 mm×450 mm) had visual cues on the walls. […] The arena was cleaned after each session. The velocity, total distance traveled, and the time spent in the peripheral 50% versus central 50% area of the arena (bouts) for each mouse were quantified and analyzed using TopScan Lite (Clever Sys).\nas §2"}, "c-Fos": {"tested_on": "c-Fos", "experiment": "c-Fos immunostaining of the DGC layer", "assay_type": "in vivo, mouse", "settings": "daily IP nadolol alone or nadolol with formoterol until day 16", "experimental": "(§3) At the end of this period, all mice were anesthetized, perfused, and the brain was extracted. The right hemisphere from each brain was fixed in 4% paraformaldehyde followed by dehydration. The methodology for staining has been published before. […] The left hemisphere was flash frozen and used for gene expression studies.\n(§4) Before all staining(s), to inhibit endogenous peroxidase, 70-μm-thick floating sections were pre-incubated in 0.5% H2O2 in 50% methanol for 30 minutes at RT. This was followed by pre-incubating the sections in 0.1% triton and 10% normal serums(s) (NS, Vector Labs) for 1 hour at RT. This was followed by incubation in primary antibodies overnight at RT. […] For DCX staining the sections were kept in pre-warmed (37° C.) for 30 minutes before staining. This was followed by incubation in secondary anti-bodies that were diluted in 0.1% triton and corresponding 1% NS. The sections were then incubated in ABC Lite (1:1000, Vector) for 1 hour. Staining was terminated by incubating in DAB (0.66 mg/ml in tris-HCl) for 5-10 minutes. Finally, the sections were washed, dehydrated and mounted.\n(§5) FIG. 16. Strategy used for performing IP injections of βAR agonist and antagonist and behavioral testing. […] Four hours later, the mice were tested for cardiovascular and respiratory system effects, open field activity, or fear conditioning. […]"}, "DCX-positive neurons": {"tested_on": "DCX-positive neurons", "experiment": "DCX immunostaining: number and dendritic branching of newly born DGCs", "assay_type": "in vivo, mouse", "settings": "nadolol alone or nadolol with formoterol", "experimental": "as §3, §4"}, "synaptophysin": {"tested_on": "synaptophysin", "experiment": "Synaptophysin immunostaining of the DG (synaptic density)", "assay_type": "in vivo, mouse", "settings": "daily IP nadolol alone or nadolol with formoterol until day 16", "experimental": "as §3, §4, §5"}},
  "data": [
    {"smiles": "N[C@H](C(=O)O)[C@H](O)c1ccc(O)c(O)c1", "note": "[L-DOPS, L-threo-3,4-dihdroxyphenylserine]", "values": [
      {"measurement": "contextual learning", "setting": "Ts65Dn mice [1]", "value": "restored contextual learning"}
    ]},
    {"smiles": "CC(C)(C)NCC(O)c1cc(Cl)c(N)c(Cl)c1", "note": "(stereo not drawn) [clenbuterol]", "values": [
      {"measurement": "Fgf2 mRNA levels in the hippocampus", "setting": "Fgf2 [2]", "value": "significant increase"}
    ]},
    {"smiles": "CNCCC(Oc1ccc(C(F)(F)F)cc1)c1ccccc1", "note": "(stereo not drawn) [fluoxetine]", "values": [
      {"measurement": "neurogenesis", "setting": "Ts65Dn mice [3]", "value": "promote neurogenesis"}
    ]},
    {"smiles": "COc1ccc(CC(C)NCC(O)c2ccc(O)c(NC=O)c2)cc1", "note": "(stereo not drawn) [formoterol]", "values": [
      {"measurement": "O2 saturation", "setting": "Ts65Dn and 2N mice [4]; 2N mice", "value": "93.221±0.36", "unit": "%"},
      {"measurement": "heart rate", "setting": "Ts65Dn and 2N mice [4]; 2N mice", "value": "638.440±44.77", "unit": "pulse per minute"},
      {"measurement": "O2 saturation", "setting": "Ts65Dn and 2N mice [4]; Ts65Dn mice", "value": "92.205±1.31", "unit": "%"},
      {"measurement": "heart rate", "setting": "Ts65Dn and 2N mice [4]; Ts65Dn mice", "value": "672.620±36.58", "unit": "pulse per minute"},
      {"measurement": "respiratory rate", "setting": "Ts65Dn and 2N mice [4]; Ts65Dn mice", "value": "189.090±8.40", "unit": "per minute"},
      {"measurement": "crossing of the blood brain barrier", "setting": "[5]", "value": "cross the blood brain barrier (BBB) and reach the brain"},
      {"measurement": "duration of freezing", "setting": "Ts65Dn and 2N mice [6]; Ts65Dn mice", "value": "34.040±3.66", "unit": "seconds per minute"},
      {"measurement": "time to reach the brain", "setting": "[7]", "value": "≤ 30", "unit": "min"}
    ]},
    {"smiles": "CC(C)(C)NCC(O)COc1cccc2c1CC(O)C(O)C2", "note": "(stereo not drawn) [nadolol]", "values": [
      {"measurement": "total number of BrdU-positive profiles in the DG", "setting": "BrdU-positive profiles; 2N mice", "value": "3,161.390±900"},
      {"measurement": "total number of BrdU-positive profiles in the DG", "setting": "BrdU-positive profiles; Ts65Dn mice", "value": "2,133.290±491"},
      {"measurement": "Fgf2 gene expression in DG micro-punches", "setting": "Fgf2 [8]; 2N mice", "value": "1.000±0.41"},
      {"measurement": "Fgf2 gene expression in DG micro-punches", "setting": "Fgf2 [8]; Ts65Dn mice", "value": "0.344±0.07"},
      {"measurement": "total distance travelled", "setting": "Ts65Dn and 2N mice [9]; 2N mice", "value": "18.233±1.48", "unit": "meters"},
      {"measurement": "number of bouts, central 50% area", "setting": "Ts65Dn and 2N mice [9]; 2N mice", "value": "39.46±4.96"},
      {"measurement": "number of bouts, peripheral 50% area", "setting": "Ts65Dn and 2N mice [9]; 2N mice", "value": "45.00±5.68"},
      {"measurement": "mean velocity in the open field arena", "setting": "Ts65Dn and 2N mice [9]; 2N mice, 4 h later", "value": "31.465±2.74", "unit": "mm/s"},
      {"measurement": "total distance travelled", "setting": "Ts65Dn and 2N mice [9]; Ts65Dn mice", "value": "30.424±2.70", "unit": "meters"},
      {"measurement": "number of bouts, central 50% area", "setting": "Ts65Dn and 2N mice [9]; Ts65Dn mice", "value": "60.25±4.95"},
      {"measurement": "density of c-Fos-positive DGCs", "setting": "c-Fos; 2N mice", "value": "179.30±22.4", "unit": "cells/mm^2"},
      {"measurement": "density of c-Fos-positive DGCs", "setting": "c-Fos; Ts65Dn mice", "value": "109.42±13.0", "unit": "cells/mm^2"},
      {"measurement": "number of DCX-positive DGCs", "setting": "DCX-positive neurons; 2N mice", "value": "5391.36±744"},
      {"measurement": "order of dendritic branching of DCX-positive neurons", "setting": "DCX-positive neurons; 2N mice", "value": "2.05±0.12"},
      {"measurement": "number of DCX-positive DGCs", "setting": "DCX-positive neurons; Ts65Dn mice", "value": "2837.79±500"},
      {"measurement": "order of dendritic branching of DCX-positive neurons", "setting": "DCX-positive neurons; Ts65Dn mice", "value": "1.58±0.08"},
      {"measurement": "percentage of area covered by synaptophysin staining in the DG", "setting": "synaptophysin; 2N mice", "value": "27.40±11.00", "unit": "%"},
      {"measurement": "percentage of area covered by synaptophysin staining in the DG", "setting": "synaptophysin; Ts65Dn mice", "value": "21.50±1.00", "unit": "%"},
      {"measurement": "duration of freezing", "setting": "Ts65Dn and 2N mice [6]; 2N mice", "value": "46.761±3.09", "unit": "seconds per minute"},
      {"measurement": "duration of freezing", "setting": "Ts65Dn and 2N mice [6]; Ts65Dn mice", "value": "19.28±4.79", "unit": "seconds per minute"}
    ]},
    {"smiles": "O=C(NCCNCC(O)COc1ccc(O)cc1)N1CCOCC1", "note": "(stereo not drawn) [xamoterol]", "values": [
      {"measurement": "contextual learning", "setting": "Ts65Dn mice [1]", "value": "restored contextual learning"},
      {"measurement": "spatial learning and hyperactivity", "setting": "Ts65Dn mice [1]; later studies", "value": "did not improve spatial learning and/or reduce hyperactivity"}
    ]}
  ]
}
